From US9221795B2, “Phosphatidylinositol 3-kinase inhibitors” (Gilead Sciences, Inc., priority 2013, dated 2015) come the findings set out here.

Chain of PI3Kδ (O00329 whole entry, the tested form may be a part, canonical isoform): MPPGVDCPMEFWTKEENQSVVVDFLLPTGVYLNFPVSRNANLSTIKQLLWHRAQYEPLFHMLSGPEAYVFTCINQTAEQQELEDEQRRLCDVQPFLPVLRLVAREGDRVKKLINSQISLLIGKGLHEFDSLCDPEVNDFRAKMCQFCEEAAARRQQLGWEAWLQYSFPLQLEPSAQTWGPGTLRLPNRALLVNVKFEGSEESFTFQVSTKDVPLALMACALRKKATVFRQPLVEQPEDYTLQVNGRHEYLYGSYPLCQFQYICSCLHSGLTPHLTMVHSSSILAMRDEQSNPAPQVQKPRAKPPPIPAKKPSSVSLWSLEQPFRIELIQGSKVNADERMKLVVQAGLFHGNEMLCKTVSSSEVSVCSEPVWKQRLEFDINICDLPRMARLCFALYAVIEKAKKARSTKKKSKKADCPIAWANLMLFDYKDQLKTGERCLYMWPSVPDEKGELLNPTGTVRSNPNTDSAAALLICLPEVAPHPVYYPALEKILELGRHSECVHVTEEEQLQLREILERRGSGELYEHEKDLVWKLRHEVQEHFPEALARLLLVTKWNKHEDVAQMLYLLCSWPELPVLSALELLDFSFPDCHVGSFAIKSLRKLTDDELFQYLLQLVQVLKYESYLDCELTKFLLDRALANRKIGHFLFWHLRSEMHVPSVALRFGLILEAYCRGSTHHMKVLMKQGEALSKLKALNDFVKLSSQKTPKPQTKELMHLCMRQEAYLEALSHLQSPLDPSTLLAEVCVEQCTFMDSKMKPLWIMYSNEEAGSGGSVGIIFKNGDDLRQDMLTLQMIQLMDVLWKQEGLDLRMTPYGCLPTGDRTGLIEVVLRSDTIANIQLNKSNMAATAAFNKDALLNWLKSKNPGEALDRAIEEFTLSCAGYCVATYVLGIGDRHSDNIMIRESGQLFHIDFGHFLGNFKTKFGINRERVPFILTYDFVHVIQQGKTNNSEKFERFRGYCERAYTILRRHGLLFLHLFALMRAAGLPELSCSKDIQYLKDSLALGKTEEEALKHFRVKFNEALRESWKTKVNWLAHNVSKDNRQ
Chain of PI3Kδ (P27986 whole entry partner, the tested form may be a part, canonical isoform): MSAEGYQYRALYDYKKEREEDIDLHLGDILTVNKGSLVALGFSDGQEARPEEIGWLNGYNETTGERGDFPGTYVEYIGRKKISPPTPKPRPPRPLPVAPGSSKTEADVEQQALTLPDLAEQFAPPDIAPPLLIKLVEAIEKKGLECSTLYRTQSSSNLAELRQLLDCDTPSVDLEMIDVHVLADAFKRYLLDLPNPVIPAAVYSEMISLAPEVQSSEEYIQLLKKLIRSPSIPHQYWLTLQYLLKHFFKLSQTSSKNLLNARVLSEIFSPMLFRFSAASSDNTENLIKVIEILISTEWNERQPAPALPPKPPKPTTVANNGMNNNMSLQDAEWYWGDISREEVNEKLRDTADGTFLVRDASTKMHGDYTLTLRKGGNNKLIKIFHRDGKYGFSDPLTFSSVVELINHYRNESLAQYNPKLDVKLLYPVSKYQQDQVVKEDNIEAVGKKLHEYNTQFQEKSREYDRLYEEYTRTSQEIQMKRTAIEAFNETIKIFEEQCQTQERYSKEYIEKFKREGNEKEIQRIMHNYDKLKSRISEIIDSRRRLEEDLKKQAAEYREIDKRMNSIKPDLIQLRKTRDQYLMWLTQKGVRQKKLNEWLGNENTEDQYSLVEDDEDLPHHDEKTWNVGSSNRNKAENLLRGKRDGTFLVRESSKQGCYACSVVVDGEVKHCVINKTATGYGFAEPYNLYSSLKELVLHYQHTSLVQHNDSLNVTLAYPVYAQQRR

For this experiment, the target named is PI3Kδ (Homo sapiens (Human), UniProt O00329). The experiment can be described thus: Enzymatic activity of PI3K isoforms, TR-FRET assay (PI3Kδ). It counts as biochemical. The note with it: 2× Km ATP, geometric mean if more than one value. Here is the method:
Enzymatic activity of the class I PI3K isoforms in the presence of the compounds of Table 1 and Compounds X, Y and Z was measured using a time-resolved fluorescence resonance energy transfer (TR-FRET) assay. The TR-FRET assay was used to monitor formation of the product 3,4,5-inositol triphosphate molecule (PIP3) as it competed with fluorescently labeled PIP3 for binding to the GRP-1 pleckstrin homology domain protein. An increase in […] product results in a decrease in TR-FRET signal as the labeled fluorophore is displaced from the GRP-1 protein binding site.
Class I PI3K isoforms were expressed and purified as heterodimeric recombinant proteins. All assay reagents and buffers for the TR-FRET assay were purchased from Millipore. PI3K isoforms were assayed under initial rate conditions in the presence of 25 mM Hepes (pH 7.4), and 2× Km ATP (75-500 μM), 2 μM PIP2, 5% glycerol, 5 mM MgCl2, 50 mM NaCl, 0.05% (v/v) Chaps, 1 mM dithiothreitol, 1% (v/v) DMSO at the following concentrations for each isoforms: PI3Kα, PI3Kβ, and PI3Kδ between 25 and 50 pM, and PI3Kγ at 2 nM. After an assay reaction time of 30 minutes at 25° C., reactions were terminated with a final concentration of 10 mM EDTA, 10 nM labeled-PIP3, and 35 nM Europium labeled GRP-1 detector protein before reading TR-FRET on an Envision plate reader (Ex: 340 nm; Em: 615/665 nm; […] delay and 500 μs read window).
Data were normalized based on positive ([…] wortmanin) and negative (DMSO) controls. α, β, δ, and γ IC50 values were calculated from the fit of the dose-response curves to a four-parameter equation. All IC50 values represent geometric mean values if more than one value was obtained. IC50 values were reported in units of nM.
For orientation: TR-FRET usually uses a lanthanide donor and a delayed reading to cut background.
One may read the IC50 as the concentration that inhibits the measured activity by half. A lower IC50 goes with higher potency. The compound `Cc1ncc(F)cc1-n1c([C@H](C)Nc2nc(N)nc(N)c2C#N)nc2cccc(Cl)c2c1=O` (atropisomer, axis not shown) [Compound 44, (S)-2,4-diamino-6-(1-(5-chloro-3-(5-fluoro-2-methylpyridin-3-yl)-4-oxo-3,4-dihydroquinazolin-2-yl)ethylamino)pyrimidine-5-carbonitrile] registered a 50% inhibitory concentration (IC50) of 34 nM. This counts as double-digit nanomolar.

Compound `Cc1c(F)cncc1-n1c([C@@H](Nc2nc(N)nc(N)c2C#N)C2CC2)nc2c(F)ccc(Cl)c2c1=O` (atropisomer, axis not shown) [Compound 65, (S)-2,4-Diamino-6-(((5-chloro-8-fluoro-3-(5-fluoro-4-methylpyridin-3-yl)-4-oxo-3,4-dihydroquinazolin-2-yl)(cyclopropyl)methyl)amino)pyrimidine-5-carbonitrile] gave a half-inhibitory concentration (IC50) of 42 nM. This IC50 and that of the compound before are within 1.5-fold of each other.

Turning to `Cc1c(F)cncc1-n1c([C@@H](Nc2nc(N)nc(N)c2C#N)C2CC2)nc2c(F)ccc(Cl)c2c1=O` (atropisomer, axis not shown) [Compound 66, (S)-2,4-Diamino-6-(((5-chloro-8-fluoro-3-(5-fluoro-4-methylpyridin-3-yl)-4-oxo-3,4-dihydroquinazolin-2-yl)(cyclopropyl)methyl)amino)pyrimidine-5-carbonitrile], the IC50 is 3 nM.

`Cc1c(F)cncc1-n1c([C@H](C)Nc2nc(N)nc(N)c2C#N)nc2cccc(F)c2c1=O` (atropisomer, axis not shown) [Compound 67, (S)-2,4-diamino-6-((1-(5-fluoro-3-(5-fluoro-4-methylpyridin-3-yl)-4-oxo-3,4-dihydroquinazolin-2-yl)ethyl)amino)pyrimidine-5-carbonitrile] displayed a half-maximal inhibitory concentration (IC50) of 120 nM.

Take `Cc1c(F)cncc1-n1c([C@H](C)Nc2nc(N)nc(N)c2C#N)nc2cccc(F)c2c1=O` (atropisomer, axis not shown) [Compound 68, (S)-2,4-diamino-6-((1-(5-fluoro-3-(5-fluoro-4-methylpyridin-3-yl)-4-oxo-3,4-dihydroquinazolin-2-yl)ethyl)amino)pyrimidine-5-carbonitrile]: half-maximal inhibition (IC50) was put at 7 nM.

`Cc1c(F)cncc1-n1c([C@@H](Nc2nc(N)nc(N)c2C#N)C2CC2)nc2cccc(Cl)c2c1=O` (atropisomer, axis not shown) [Compound 69, (S)-2,4-diamino-6-(((5-chloro-3-(5-fluoro-4-methylpyridin-3-yl)-4-oxo-3,4-dihydroquinazolin-2-yl)(cyclopropyl)methyl)amino)pyrimidine-5-carbonitrile] came in with an IC50 of 60 nM.

Take `Cc1c(F)cncc1-n1c([C@@H](Nc2nc(N)nc(N)c2C#N)C2CC2)nc2cccc(Cl)c2c1=O` (atropisomer, axis not shown) [Compound 70, (S)-2,4-diamino-6-(((5-chloro-3-(5-fluoro-4-methylpyridin-3-yl)-4-oxo-3,4-dihydroquinazolin-2-yl)(cyclopropyl)methyl)amino)pyrimidine-5-carbonitrile]: it took 3 nM to reach half-maximal inhibition (IC50).

`CC[C@H](Nc1nc(N)nc(N)c1C#N)c1nc2cccc(Cl)c2c(=O)n1-c1cncc(F)c1C` (atropisomer, axis not shown) [Compound 71, (S)-2,4-diamino-6-((1-(5-chloro-3-(5-fluoro-4-methylpyridin-3-yl)-4-oxo-3,4-dihydroquinazolin-2-yl)propyl)amino)pyrimidine-5-carbonitrile] registered an IC50 of 49 nM.

For `CC[C@H](Nc1nc(N)nc(N)c1C#N)c1nc2cccc(Cl)c2c(=O)n1-c1cncc(F)c1C` (atropisomer, axis not shown) [Compound 72, (S)-2,4-diamino-6-((1-(5-chloro-3-(5-fluoro-4-methylpyridin-3-yl)-4-oxo-3,4-dihydroquinazolin-2-yl)propyl)amino)pyrimidine-5-carbonitrile], the IC50 was 1 nM. This IC50 is about 49-fold lower than that of the compound before.

The compound `Cc1c(F)cncc1-n1c([C@H](C)Nc2nc(N)nc(N)c2C#N)nc2c(F)ccc(Cl)c2c1=O` (atropisomer, axis not shown) [Compound 73, (S)-2,4-diamino-6-((1-(5-chloro-8-fluoro-3-(5-fluoro-4-methylpyridin-3-yl)-4-oxo-3,4-dihydroquinazolin-2-yl)ethyl)amino)pyrimidine-5-carbonitrile] registered an IC50 of 59 nM.

Take `Cc1c(F)cncc1-n1c([C@H](C)Nc2nc(N)nc(N)c2C#N)nc2c(F)ccc(Cl)c2c1=O` (atropisomer, axis not shown) [Compound 74, (S)-2,4-diamino-6-((1-(5-chloro-8-fluoro-3-(5-fluoro-4-methylpyridin-3-yl)-4-oxo-3,4-dihydroquinazolin-2-yl)ethyl)amino)pyrimidine-5-carbonitrile]: half-maximal inhibition (IC50) required 1 nM.

`Cc1c(F)cncc1-n1c([C@H](C)Nc2nc(N)nc(N)c2C#N)nc2ccc(F)cc2c1=O` (atropisomer, axis not shown) [Compound 75, (S)-2,4-diamino-6-((1-(6-fluoro-3-(5-fluoro-4-methylpyridin-3-yl)-4-oxo-3,4-dihydroquinazolin-2-yl)ethyl)amino)pyrimidine-5-carbonitrile] came in with a half-maximal inhibitory concentration (IC50) of 510 nM.

On to `Cc1c(F)cncc1-n1c([C@H](C)Nc2nc(N)nc(N)c2C#N)nc2ccc(F)cc2c1=O` (atropisomer, axis not shown) [Compound 76, (S)-2,4-diamino-6-((1-(6-fluoro-3-(5-fluoro-4-methylpyridin-3-yl)-4-oxo-3,4-dihydroquinazolin-2-yl)ethyl)amino)pyrimidine-5-carbonitrile], for which half-maximal inhibition (IC50) required 14 nM.

As to `Cc1cncc(-n2c([C@H](C)Nc3nc(N)nc(N)c3C#N)nc3cccc(Cl)c3c2=O)c1C` (atropisomer, axis not shown) [Compound 77, (S)-2,4-diamino-6-((1-(5-chloro-3-(4,5-dimethylpyridin-3-yl)-4-oxo-3,4-dihydroquinazolin-2-yl)ethyl)amino)pyrimidine-5-carbonitrile], 75 nM corresponded to half-maximal inhibition (IC50). Compared with the last compound, the IC50 is about 5.4-fold higher.

Consider `Cc1cncc(-n2c([C@H](C)Nc3nc(N)nc(N)c3C#N)nc3cccc(Cl)c3c2=O)c1C` (atropisomer, axis not shown) [Compound 78, (S)-2,4-diamino-6-((1-(5-chloro-3-(4,5-dimethylpyridin-3-yl)-4-oxo-3,4-dihydroquinazolin-2-yl)ethyl)amino)pyrimidine-5-carbonitrile], for which the midpoint of inhibition, the IC50, lay at 0.8 nM. Compared with the last compound, the IC50 is about 94-fold lower.

Regarding `Cc1ccncc1-n1c([C@H](C)Nc2nc(N)nc(N)c2C#N)nc2cccc(C(F)(F)F)c2c1=O` (atropisomer, axis not shown) [Compound 79, (S)-2,4-Diamino-6-((1-(3-(4-methylpyridin-3-yl)-4-oxo-5-(trifluoromethyl)-3,4-dihydroquinazolin-2-yl)ethyl)amino)pyrimidine-5-carbonitrile], the IC50 was determined as 2 nM.

Turning to `Cc1ccncc1-n1c([C@H](C)Nc2nc(N)nc(N)c2C#N)nc2cccc(C(F)(F)F)c2c1=O` (atropisomer, axis not shown) [Compound 80, (S)-2,4-Diamino-6-((1-(3-(4-methylpyridin-3-yl)-4-oxo-5-(trifluoromethyl)-3,4-dihydroquinazolin-2-yl)ethyl)amino)pyrimidine-5-carbonitrile], the IC50 was 27 nM.

Compound `Cc1c(F)cncc1-n1c([C@@H](C)Nc2nc(N)nc(N)c2C#N)nc2cccc(Cl)c2c1=O` (atropisomer, axis not shown) [Compound 114, (R)-2,4-diamino-6-((1-(5-chloro-3-(5-fluoro-4-methylpyridin-3-yl)-4-oxo-3,4-dihydroquinazolin-2-yl)ethyl)amino)pyrimidine-5-carbonitrile] registered an IC50 of 220 nM. Against the preceding compound, the IC50 is about 8.1-fold higher.

`Cc1c(F)cncc1-n1c([C@@H](C)Nc2nc(N)nc(N)c2C#N)nc2cccc(Cl)c2c1=O` (atropisomer, axis not shown) [Compound 115, (R)-2,4-diamino-6-((1-(5-chloro-3-(5-fluoro-4-methylpyridin-3-yl)-4-oxo-3,4-dihydroquinazolin-2-yl)ethyl)amino)pyrimidine-5-carbonitrile] came in with a half-inhibitory concentration (IC50) of 4 nM.

Compound `C[C@H](Nc1nc(N)nc(N)c1Cl)c1nc2cccc(S(C)(=O)=O)c2c(=O)n1-c1cccnc1` [Compound 49, (S)-2-(1-((2,6-diamino-5-chloropyrimidin-4-yl)amino)ethyl)-5-(methylsulfonyl)-3-(pyridin-3-yl)quinazolin-4(3H)-one] displayed an IC50 of 67 nM.

For `C[C@H](Nc1nc(N)nc(N)c1C(N)=O)c1nc2cccc(Cl)c2c(=O)n1-c1cccnc1` [Compound 50, (S)-2,4-Diamino-6-((1-(5-chloro-4-oxo-3-(pyridin-3-yl)-3,4-dihydroquinazolin-2-yl)ethyl)amino)pyrimidine-5-carboxamide], the IC50 is 2 nM.

In turn, `C[C@H](Nc1nc(N)nc(N)c1Cl)c1nc2cccc(Cl)c2c(=O)n1-c1cncc(F)c1` [Compound 51, (S)-5-Chloro-2-(1-((2,6-diamino-5-chloropyrimidin-4-yl)amino)ethyl)-3-(5-fluoropyridin-3-yl)quinazolin-4(3h)-one] came in with a half-maximal inhibitory concentration (IC50) of 7 nM.
